Source: patent US9919021B2, “Brain permeant peptidomimetic beta-secretase 1 inhibitors for the treatment or prophylaxis of neurological disorders or conditions” (IBET—INSTITUTO DE BIOLOGIA EXPERIMENTAL E TECNOLOGICA, priority 2016, dated 2018)
Read-outs that look alike come from different tables or passages of the source. Starred links: 1 amine or outer side, 2 acyl side, 3 side chain; linkers in the order of their positions; H or OH if unused. Non-standard residues stand in square brackets, D forms with d. Residues, ends and D or L forms follow the SMILES beside them. LeuΨ(S-CHOHCH2)Ala = CC(C)C[C@H](N[*:1])[C@@H](O)C[C@@H](C)C(=O)[*:2]

Experiments:
in vitro = in vitro ADME, mice; conditions: mouse, brain homogenate, t1/2 brain
Method: An assay for in vitro metabolic stability was accomplished in order to test the influence of N-terminal acylation on the metabolization profile of the compounds. Therefore, compounds were prepared at 50 μM in phosphate-buffered saline (PBS) with 2% DMSO. An amount of 10 μL of the solution was added to human serum (40 μL) or to 10% of mice brain homogenate in PBS with 0.5% Triton X-100 (40 μL). All compounds were tested using the same biological samples of human serum and mice brain homogenate to ensure identical deactivation conditions. The solutions were incubated during different time periods at 37° C., after which metabolization was stopped by adding one volume of acetonitrile. Precipitated serum and brain proteins were removed by centrifugation at 14 000g for 10 min. […] The remaining peptide in the supernatant was quantified by HPLC-FLU (Merck Hitachi, Elite LaChrom), (exλ=255 nm and emλ=285 nm, to detect compounds containing phenylalanine, and exλ=275 nm and emλ=307 nm whenever tyrosine is present). Chromatographic conditions were as described for determination of enzyme activities. A calibration curve was built for each compound, and the decay in the concentration of the peptide in the incubated samples was followed until approximately 50% decay. The metabolization kinetics of the synthetic peptides followed a monophasic behaviour in vitro.

[1] = biological target: T1, BACE-1 (human, recombinant) (Homo sapiens, UniProt P56817); assay: BACE-1 activity assay (fluorogenic substrate, HPLC-FLU); assay type: biochemical
T1 construct: purchased Sigma-Aldrich
T1 sequence (P56817 46-501): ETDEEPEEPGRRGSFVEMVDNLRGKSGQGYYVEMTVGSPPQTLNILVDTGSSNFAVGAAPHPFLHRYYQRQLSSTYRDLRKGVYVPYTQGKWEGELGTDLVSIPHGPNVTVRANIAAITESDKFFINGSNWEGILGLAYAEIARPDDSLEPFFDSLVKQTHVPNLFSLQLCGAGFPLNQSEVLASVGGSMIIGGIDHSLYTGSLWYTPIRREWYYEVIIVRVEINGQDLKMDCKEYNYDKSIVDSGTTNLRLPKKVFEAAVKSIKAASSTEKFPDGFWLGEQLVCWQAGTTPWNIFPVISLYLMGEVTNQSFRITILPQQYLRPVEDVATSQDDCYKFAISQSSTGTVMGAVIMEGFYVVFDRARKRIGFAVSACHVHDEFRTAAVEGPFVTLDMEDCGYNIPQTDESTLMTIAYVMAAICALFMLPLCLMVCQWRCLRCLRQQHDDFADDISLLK
From the text: The program started at 90% A for two min, graded to 70% A during ten min and finally to 0% A during two min.

[2] = design: species or system Wistar rats; conditions: in vivo, iv; for detection in serum samples: rat
Method: Female mice (n=12, 8-12 weeks, weighing 22-37 g) and male Wistar rats (n=8, 8-12 weeks, weighing 182-201 g) were purchased from Harlan Ibérica, Barcelona, Spain. All animals received a standard diet and water ad libitum. Experiments were conducted according to the Home Office Guidance in the Operation of Animals (Scientific Procedures) Act 1986, published by Her Majesty's Stationary Office, London, UK and the Institutional Animal Research Committee Guide for the Care and Use of Laboratory Animals published by the US National Institutes of Health (NIH Publication No. 85-23, revised 1996), as well as to the currently adopted EC regulations (2010/63/EU). Finally, the studies are in compliance with the ARRIVE Guidelines for Reporting Animal Research' summarized at www.nc3rs.org.uk. Before experiments animals were fasted for 24 h.
PBS was used to prepare a solution of Ia for intravenous administration at a dose of 0.53 mg/kg. Experiments were done in triplicate. Mice and Wistar rats were sacrificed at 0.5, 1 and 2 hours after dosing and were previously anesthetized with sodium pentobarbital (6 mg/kg i.p.) for collection of blood by cardiac puncture and brain tissue was perfused by intraventricular injection of 10 mL of chilled saline solution to remove residual blood.
Serum was isolated from the blood samples by centrifugation at 657 g for 10 min, at 4° C. Serum proteins were precipitated with one volume of acetonitrile and were removed by centrifugation at 14000 g for 10 min. Brain was promptly removed and washed with PBS and blotted dry. Meninges were carefully removed. In the case of Wistar rats only cortex and hippocampus were collected while for mice the whole brain was used. The brain samples were homogenized with 2 volumes (V/w) of PBS/acetonitrile/Triton X-100 (50/50/0.5) using firstly a pestle and then a pipette and finally a sonicator. Compound Ic was added as internal standard to best mimic the recovery of compound Ia. The pellet was removed centrifuging at 14000 g for 10 min. Samples were purified by preparative reverse-phase HPLC Using a C18 column (Jupiter, Phenomenex) 250×21.2 mm, 5 μm. Chromatographic conditions were as follow: eluent (A) water/TFA (99.9:0.1, V/V), (B) acetonitrile/water/TFA (90:9.9:0.1, V/V). The linear gradient was started at 80% A, graded to 68% for 2 min and then was kept at 68% for 17 min finally grading to 0% A for 5 min. The flow rate was 10 mL/min and the column was at room temperature. […]
For identification of Ia and its metabolite in Wistar rat brain, samples were analyzed using a 4800plus MALDI-TOF/TOF (AB Sciex) mass spectrometer in the positive reflector MS and MS/MS modes with 3200 laser shots per spectrum and data was collected using the 4000 Series Explorer Software v.3.5.3 (Applied Biosystems). […]

[3] = in vivo pharmacokinetic study in mice after intravenous Ia; conditions: for detection in brain samples: after intravenous Ia 0.53 mg/kg, HPLC-FLU and LC-MS
[4] = biological target: T2, BACE-2 (human, recombinant) (Homo sapiens, UniProt Q9Y5Z0); assay: BACE-2 activity assay (fluorogenic substrate, HPLC-FLU); assay type: biochemical; conditions: pH 4.5, 37° C.; mean value ± standard deviation, n = 3; read-out: Ki^app BACE-2
T2 construct: purchased Enzo
T2 sequence (Q9Y5Z0 63-518): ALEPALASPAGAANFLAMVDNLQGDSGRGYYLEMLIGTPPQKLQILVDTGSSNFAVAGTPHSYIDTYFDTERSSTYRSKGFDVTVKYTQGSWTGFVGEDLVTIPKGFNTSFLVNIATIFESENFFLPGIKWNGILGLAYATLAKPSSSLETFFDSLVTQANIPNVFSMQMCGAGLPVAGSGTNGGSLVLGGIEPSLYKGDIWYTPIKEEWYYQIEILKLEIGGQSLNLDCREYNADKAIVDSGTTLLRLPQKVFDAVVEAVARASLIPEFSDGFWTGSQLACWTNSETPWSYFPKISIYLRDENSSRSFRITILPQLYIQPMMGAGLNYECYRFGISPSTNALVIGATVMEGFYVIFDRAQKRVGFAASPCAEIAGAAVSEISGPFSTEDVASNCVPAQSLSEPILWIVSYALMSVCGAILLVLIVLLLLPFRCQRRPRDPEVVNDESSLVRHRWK

[5] = mouse, in vivo, iv
[6] = pro-BACE-1, pH 4.5, 37° C., mean value ± standard deviation, n = 3, read-out: Ki BACE-1

| Structure (SMILES) | half-life at 10 µM (in vitro) [h] | Ki [1, 6] [nM] | detection in rat cortex [2] | detection in serum samples [2] | detection in brain samples [3] | detection in serum samples ([3]; half an hour after intravenous Ia 0.53 mg/kg, HPLC-FLU) | Ki [4] [nM] | Ki [1] [nM] | concentration in mice brain [5] |
| --- | --- | --- | --- | --- | --- | --- | --- | --- | --- |
| CC(=O)N[C@@H](CCC(=O)O)C(=O)N[C@@H](CC(C)C)C(=O)N[C@@H](CC(=O)O)C(=O)N[C@@H](CC(C)C)[C@@H](O)C[C@@H](C)C(=O)N[C@H](C(=O)N[C@@H](Cc1ccccc1)C(=O)N[C@@H](Cc1ccc(O)cc1)C(=O)N[C@@H](C)C(=O)N[C@@H](CCC(=O)O)C(=O)N[C@@H](CC(=O)O)C(N)=O)C(C)C [Ia] (Ac-ELD[LeuΨ(S-CHOHCH2)Ala]VFYAED-NH2) | 3.4 | 2 ± 0.6 | not detected | detected | could not be detected | not detected | 18.3 ± 0.5 |  |  |
| CC(C)C[C@H](NC(=O)[C@@H](N)CCC(=O)O)C(=O)N[C@@H](CC(=O)O)C(=O)N[C@@H](CC(C)C)[C@@H](O)C[C@@H](C)C(=O)N[C@H](C(=O)N[C@@H](Cc1ccccc1)C(=O)N[C@@H](Cc1ccc(O)cc1)C(=O)N[C@@H](C)C(=O)N[C@@H](CCC(=O)O)C(=O)N[C@@H](CC(=O)O)C(N)=O)C(C)C [Ic] (H-ELD[LeuΨ(S-CHOHCH2)Ala]VFYAED-NH2) | 2.3 ± 0.1 | 1.9 ± 0.2 |  |  |  |  | 14.2 ± 2.2 | 2 ± 0.1 |  |
| CC(C)C[C@H](NC(=O)[C@@H](N)CCC(=O)O)C(=O)N[C@@H](CC(=O)O)C(=O)N[C@@H](CC(C)C)[C@@H](O)C[C@@H](C)C(=O)N[C@H](C(=O)N[C@@H](Cc1ccccc1)C(=O)N[C@@H](Cc1ccccc1)C(=O)N[C@@H](C)C(=O)N[C@@H](CCC(=O)O)C(=O)N[C@@H](CC(=O)O)C(N)=O)C(C)C [Id] (H-ELD[LeuΨ(S-CHOHCH2)Ala]VFFAED-NH2) |  | 2 ± 0.1 |  |  |  |  | 7.3 ± 0.9 |  |  |
| CC(C)C[C@H](NC(=O)[C@@H](N)CCC(=O)O)C(=O)N[C@@H](CC(=O)O)C(=O)N[C@@H](CC(C)C)[C@@H](O)C[C@@H](C)C(=O)N[C@H](C(=O)N[C@@H](Cc1ccccc1)C(=O)N[C@@H](Cc1ccc(O)cc1)C(=O)N[C@@H](C)C(=O)N[C@@H](CCC(=O)O)C(=O)N[C@@H](CC(=O)O)C(=O)O)C(C)C [Ig] (H-ELD[LeuΨ(S-CHOHCH2)Ala]VFYAED-OH) | 6 ± 0.3 | 1.7 ± 0.2 | detected | detected | found within therapeutic concentrations |  | 12.7 ± 1.9 |  | approximately 20 nM |
| CC(C)C[C@H](NC(=O)[C@@H](N)CCC(=O)O)C(=O)N[C@@H](CC(=O)O)C(=O)N[C@@H](CC(C)C)[C@@H](O)C[C@@H](C)C(=O)N[C@H](C(=O)N[C@@H](CCC(=O)O)C(=O)N[C@@H](Cc1ccccc1)C(=O)O)C(C)C [OM00-3, reference compound] (H-ELD[LeuΨ(S-CHOHCH2)Ala]VEF-OH) | 5.8 ± 0.7 |  |  |  |  |  | 3 ± 0.3 |  |  |
